# Test results taken from PubChem BioAssay (NCI).
#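 In this assay, cells in 96-well plates receive the compound at five concentrations for 48 hours. Endpoints are linearly interpolated between the surrounding concentrations. TGI is the concentration that stops growth completely.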
# Assays:
# Assay in all cases: DTP human tumour cell line panel, 48 h
# OVCAR-3 ovarian = system: OVCAR-3 ovarian
# HCT-15 colon = system: HCT-15 colon
# LOX IMVI melanoma = system: LOX IMVI melanoma
# U251 CNS = system: U251 CNS
# DU-145 prostate = system: DU-145 prostate
# COLO 205 colon = system: COLO 205 colon
# HT29 colon = system: HT29 colon
# KM12 colon = system: KM12 colon
# SF-539 CNS = system: SF-539 CNS
# SK-MEL-5 melanoma = system: SK-MEL-5 melanoma
SMILES,TGI (OVCAR-3 ovarian) [µM],TGI (HCT-15 colon) [µM],TGI (LOX IMVI melanoma) [µM],TGI (U251 CNS) [µM],TGI (DU-145 prostate) [µM],TGI (COLO 205 colon) [µM],TGI (HT29 colon) [µM],TGI (KM12 colon) [µM],TGI (SF-539 CNS) [µM],TGI (SK-MEL-5 melanoma) [µM]
COc1ccc2nc3c([N+](=O)[O-])ccc(NCCN(C)C)c3c(N)c2c1,3.31,2.49,1.08,3.13,3.17,2.31,1.73,0.939,3.05,3.45
CCOC(=O)c1[nH]cc(C)c1-c1cccn1-c1ccc(Cl)cc1[N+](=O)[O-],29.5,> 100,31.3,33.1,> 100,38.2,30.7,52.9,43.9,28.1
CC(=O)OCC1OC(n2cnc3nc(Br)[nH]c(=O)c32)C(OC(C)=O)C1OC(C)=O (stereo not given),> 100,> 100,> 100,> 100,> 100,> 100,> 100,> 100,> 100,> 100
C=C(C)[C@@H](O)[C@H](O)C[C@H](C)C1CC[C@]2(C)C1=CC[C@@H]1[C@@]3(C)CC[C@@H](OC(C)=O)C(C)(C)[C@@H]3C[C@@H](OC3OC(COC(C)=O)C(O)C(O)C3O)[C@]12C (stereo not given in full),4.79,11.7,3.31,5.86,11.1,3.39,4.04,2.95,11.7,3.73
CC(C)NC(=O)OCc1c(COC(=O)NC(C)C)c(-c2ccc[n+](COC(=O)Cc3ccccc3)c2)n2c1CCC2,> 100,> 100,> 100,> 100,67.7,> 100,> 100,> 100,> 100,> 100
CNC(=O)N(CCC#N)CCN(C(=O)NC)c1ccccc1,> 100,> 100,> 100,> 100,> 100,> 100,> 100,> 100,> 100,> 100
O=C1c2cc(I)ccc2N2CCN=C2N1Cc1ccccc1,> 100,> 100,> 100,> 100,> 100,> 100,> 100,> 100,> 100,> 100
CC(C)(C)COC(=O)C(C)(C)NC(=O)C(CC(=O)OCc1ccccc1)NC(=O)OCc1ccccc1 (stereo not given),> 100,69.1,> 100,> 100,> 100,44,87.9,> 100,> 100,29.1
Cn1c2ccc(F)cc2c2ccc3c(c21)C(=O)C=CC3=O,19.6,28.3,22.8,23.9,43.3,21.6,49.2,> 91.9,35.8,56.4
c1coc(-c2nccc3c2[nH]c2ccccc23)c1,> 100,> 100,> 100,> 100,> 100,33.5,> 100,> 100,> 100,> 100
Nn1c(Nc2ccc(S(N)(=O)=O)cc2)nnc(/C=C/c2c(O)ccc3ccccc23)c1=O,42.8,30.4,27.1,> 100,91.2,88.1,42.6,52.2,> 100,28.7
CCOC(=O)/C=C/C(=O)O/C=C/[N+](=O)[O-],> 100,> 100,> 100,> 100,> 100,> 100,> 100,> 100,> 100,> 100
CC#C[C@]1(O)CCC2[C@@H]3CCC4=CC(=O)CCC4=C3[C@@H](c3ccc(N(C)C)cc3)C[C@@]21C (stereo not given in full),23.5,> 100,33.7,35.2,73.1,24.1,28.7,65.2,28.5,24.6
CSc1ncc2c(n1)-c1ccccc1OC2N1CCOCC1 (stereo not given),> 100,> 100,> 100,> 100,> 100,> 100,> 100,> 100,> 100,> 100
O=c1[nH]c2ccccc2c(O)c1Cc1ccccc1,> 100,> 100,> 100,> 100,> 100,> 100,> 100,> 100,> 100,> 100
Cc1cc2nc3c(C#N)c4c(c(Nc5ccc(F)cc5)n3c2cc1C)CCC4,> 100,> 100,> 100,> 100,> 100,> 100,> 100,> 100,> 100,> 100
